Patent US20050123616A1, “Azithromycin multiparticulate dosage forms by liquid-based processes” (Pfizer Inc, priority 2003, published 2005)

Columns and labels:
[1] = amount of azithromycin dihydrate dissolved in coating solution, indicated by pH; format: physicochemical; settings: aqueous hydroxypropyl cellulose coating solution, pH 9
Method: Multiparticulates were made by a spray-coating process using the following procedure. First, 30 g of the low reactivity carrier hydroxypropyl cellulose containing virtually no acid or ester substituents (KLUCEL EF from Aqualon, Inc. of Wilmington, Del.) were dissolved into 800 g of distilled water. To this solution was then added 119.6 g of crystalline azithromycin dihydrate having a degree of crystallinity of >99%.

[2] = distilled water at pH 6.9; cited from earlier work

CC[C@H]1OC(=O)[C@H](C)[C@@H](O[C@H]2C[C@@](C)(OC)[C@@H](O)[C@H](C)O2)[C@H](C)[C@@H](O[C@@H]2O[C@H](C)C[C@H](N(C)C)[C@H]2O)[C@](C)(O)C[C@@H](C)CN(C)[C@H](C)[C@@H](O)[C@]1(C)O [azithromycin dihydrate, 9a-aza-9a-methyl-9-deoxo-9a-homoerythromycin A]
amount of azithromycin dihydrate dissolved in the solution [1]: less than 1 mg/mL
solubility [2]: 1100 µg/mL
